{"source": "patent US20100215625A1", "about": "“EFFICIENT PREPARATION OF NAPHTHOQUINONE ANTICANCER ACTIVE INGREDIENTS” (TAHEEBO JAPAN CO., LTD., priority 2009, published 2010)", "key": {"[1]": {"system": "A-549 cells (lung cancer cells)", "experiment": "Cytotoxicity experiment 1: anticancer activity against A-549 cells, viable cell count after 3 days", "details": "Homo sapiens, A549, 72 h, read-out: Cell Viabilities (%) of A-549 (Lung Cancer Cells)", "experimental": "A-549 cells (lung cancer cells; Strain No. ECACC86012804; available from Laboratory Products Dept. of Dainippon Pharmaceuticals Inc. (now Dainippon Sumitomo Pharma Co., Ltd.)) were preliminarily seeded in 35 mm petri dishes containing Dulbecco's modified Eagle medium (DMEM) containing 20% of fetal bovine serum (FBS) in a concentration of 1×10^5/ml. The seeded cells were incubated at 36° C. for 1 day under 5% CO2 and were confirmed to be stuck at the bottom of the petri dishes. The resulting A-549 cells were divided into three groups, to the first group of which were added extracts from a medium used in the ingredient-production system in concentrations of 1, 10, 100 and 1000 μg/ml, to the second group of which was added NQ801 which was known to have an anticancer activity (see Patent Document 2) in said concentrations, and to the third group of which were added ether fractions extracted from Tabebuia avellanedae barks in a conventional manner in said concentrations. These groups were incubated at 36° C. for 3 days, and viable cells were counted and viabilities were calculated."}, "[2]": {"system": "MCF-7 cells (breast cancer cells)", "experiment": "Cytotoxicity experiment 2: anticancer activity against MCF-7 cells, viable cell count after 3 days", "details": "Homo sapiens, MCF7, 72 h, read-out: Cell Viabilities (%) of MCF-7 (Breast Cancer Cells)", "experimental": "A-549 cells (lung cancer cells; Strain No. ECACC86012804; available from Laboratory Products Dept. of Dainippon Pharmaceuticals Inc. (now Dainippon Sumitomo Pharma Co., Ltd.)) were preliminarily seeded in 35 mm petri dishes containing Dulbecco's modified Eagle medium (DMEM) containing 20% of fetal bovine serum (FBS) in a concentration of 1×10^5/ml. The seeded cells were incubated at 36° C. for 1 day under 5% CO2 and were confirmed to be stuck at the bottom of the petri dishes. […] These groups were incubated at 36° C. for 3 days, and viable cells were counted and viabilities were calculated.\nCytotoxicity experiments for MCF-7 cells (breast cancer cells; Strain No. ECACC86012803; available from Laboratory Products Dept. of Dainippon Pharmaceuticals Inc. (now Dainippon Sumitomo Pharma Co., Ltd.)) were carried out in the similar manner to the Experiment 1."}, "various tumor cells": {"system": "various tumor cells", "details": "known from Patent Documents 1, 2 and Nonpatent Document 1; cited from earlier work"}}, "data": [{"compound": "C[C@H](O)c1cc2c(o1)C(=O)c1cccc(O)c1C2=O", "note": "[NQ801, (S)-2-(1-hydroxyethyl)-5-hydroxynaphtho[2,3-b]furan-4,9-dione]", "values": [{"measurement": "viability at 1 µg/mL", "setting": "[1]", "value": 90, "unit": "%"}, {"measurement": "viability at 10 µg/mL", "setting": "[1]", "value": 60, "unit": "%"}, {"measurement": "viability at 100 µg/mL", "setting": "[1]", "value": 30, "unit": "%"}, {"measurement": "viability at 1000 µg/mL", "setting": "[1]", "value": 0, "unit": "%"}, {"measurement": "viability at 1 µg/mL", "setting": "[2]", "value": 90, "unit": "%"}, {"measurement": "viability at 10 µg/mL", "setting": "[2]", "value": 60, "unit": "%"}, {"measurement": "viability at 100 µg/mL", "setting": "[2]", "value": 20, "unit": "%"}, {"measurement": "viability at 1000 µg/mL", "setting": "[2]", "value": 0, "unit": "%"}, {"measurement": "Cytotoxicity against various tumor cells", "setting": "various tumor cells", "value": "potent cytotoxicity"}]}]}
